Structures are written as SMILES. pIC50: −log10 of the molar value.

The target in the assay is Human thrombin (Homo sapiens (Human), UniProt P00734). The assay is described as follows: Thrombin protease activity inhibition assay (chromogenic substrate S-2238). As to conditions: 3 nM thrombin, 125 μM S-2238, 10 min pre-incubation, RT. Format: biochemical. The method, boiled down:
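Thrombin at 3 nM final in 0.05 M Tris pH 7.4, 0.015 M NaCl, 0.01% PEG-8000, at room temperature; compounds as ten-point three-fold dilutions.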
In general, pIC50 refers to the IC50 on a negative log10 scale, so that one unit is a factor of ten. `O=C(c1ccoc1)n1nc(-c2cccn(CCN3CCOCC3)c2=O)cc1NCc1ccc(Cl)s1` [Cmpd 181, 3-(5-[(5-chlorothiophen-2-yl)methyl]amino-1-[(furan-3-yl)carbonyl]-1H-pyrazol-3-yl)-1-[2-(morpholin-4-yl)ethyl]-1,2-dihydropyridin-2-one] gave a pIC50 of more than 7.00.

In the case of `O=C(c1cccs1)n1nc(-c2cccn(Cc3ccco3)c2=O)cc1NCc1ccc(Cl)s1` [Cmpd 183, 3-(5-[(5-chlorothiophen-2-yl)methyl]amino-1-[(thiophen-2-yl)carbonyl]-1H-pyrazol-3-yl)-1-(furan-2-ylmethyl)-1,2-dihydropyridin-2-one], the pIC50 was more than 7.00. Then `O=C(c1cccs1)n1nc(-c2cccn(Cc3cccnn3)c2=O)cc1NCc1ccc(Cl)s1` [Cmpd 185, 3-(5-[(5-chlorothiophen-2-yl)methyl]amino-1-[(thiophen-2-yl)carbonyl]-1H-pyrazol-3-yl)-1-(pyridazin-3-ylmethyl)-1,2-dihydropyridin-2-one], with less than 4.00; and `O=C(c1cccs1)n1nc(-c2cccn(Cc3ccccn3)c2=O)cc1NCc1ccc(Cl)s1` [Cmpd 186, 3-(5-[(5-chlorothiophen-2-yl)methyl]amino-1-[(thiophen-2-yl)carbonyl]-1H-pyrazol-3-yl)-1-(pyridin-2-ylmethyl)-1,2-dihydropyridin-2-one], with more than 7.00; and `O=C(c1cccs1)n1nc(-c2cccn(Cc3cccnc3)c2=O)cc1NCc1ccc(Cl)s1` [Cmpd 187, 3-(5-[(5-chlorothiophen-2-yl)methyl]amino-1-[(thiophen-2-yl)carbonyl]-1H-pyrazol-3-yl)-1-(pyridin-3-ylmethyl)-1,2-dihydropyridin-2-one], with more than 7.00. Under `O=C(c1cccs1)n1nc(-c2cccn(Cc3ccncc3)c2=O)cc1NCc1ccc(Cl)s1` [Cmpd 188, 3-(5-[(5-chlorothiophen-2-yl)methyl]amino-1-[(thiophen-2-yl)carbonyl]-1H-pyrazol-3-yl)-1-(pyridin-4-ylmethyl)-1,2-dihydropyridin-2-one] stands more than 7.00; under `O=C(c1cccs1)n1nc(-c2cccn(Cc3ncccn3)c2=O)cc1NCc1ccc(Cl)s1` [Cmpd 189, 3-(5-[(5-chlorothiophen-2-yl)methyl]amino-1-[(thiophen-2-yl)carbonyl]-1H-pyrazol-3-yl)-1-(pyrimidin-2-ylmethyl)-1,2-dihydropyridin-2-one], more than 7.00; under `O=C(c1cccs1)n1nc(-c2cccn(Cc3cccs3)c2=O)cc1NCc1ccc(Cl)s1` [Cmpd 190, 3-(5-[(5-chlorothiophen-2-yl)methyl]amino-1-[(thiophen-2-yl)carbonyl]-1H-pyrazol-3-yl)-1-(thiophen-2-ylmethyl)-1,2-dihydropyridin-2-one], more than 7.00. The molecule `O=C(c1cccs1)n1nc(-c2cccn(Cc3ccsc3)c2=O)cc1NCc1ccc(Cl)s1` [Cmpd 191, 3-(5-[(5-chlorothiophen-2-yl)methyl]amino-1-[(thiophen-2-yl)carbonyl]-1H-pyrazol-3-yl)-1-(thiophen-3-ylmethyl)-1,2-dihydropyridin-2-one] had a pIC50 of more than 7.00.

The molecule `O=C(c1cccs1)n1nc(-c2cccn(CCN3CCOCC3)c2=O)cc1NCc1ccc(Cl)s1` [Cmpd 192, 3-(5-[(5-chlorothiophen-2-yl)methyl]amino-1-[(thiophen-2-yl)carbonyl]-1H-pyrazol-3-yl)-1-[2-(morpholin-4-yl)ethyl]-1,2-dihydropyridin-2-one] had a pIC50 of less than 4.00. Then `O=C(c1ccsc1)n1nc(-c2ccc[nH]c2=O)cc1NCc1ccc(Cl)s1` [Cmpd 193, 3-(5-[(5-chlorothiophen-2-yl)methyl]amino-1-[(thiophen-3-yl)carbonyl]-1H-pyrazol-3-yl)-1,2-dihydropyridin-2-one], with more than 7.00. Then `O=C(c1ccsc1)n1nc(-c2cccn(Cc3ccco3)c2=O)cc1NCc1ccc(Cl)s1` [Cmpd 195, 3-(5-[(5-chlorothiophen-2-yl)methyl]amino-1-[(thiophen-3-yl)carbonyl]-1H-pyrazol-3-yl)-1-(furan-2-ylmethyl)-1,2-dihydropyridin-2-one], with more than 7.00; and `O=C(c1ccsc1)n1nc(-c2cccn(Cc3cccnn3)c2=O)cc1NCc1ccc(Cl)s1` [Cmpd 197, 3-(5-[(5-chlorothiophen-2-yl)methyl]amino-1-[(thiophen-3-yl)carbonyl]-1H-pyrazol-3-yl)-1-(pyridazin-3-ylmethyl)-1,2-dihydropyridin-2-one], with more than 7.00. In the case of `O=C(c1ccsc1)n1nc(-c2cccn(Cc3cccnc3)c2=O)cc1NCc1ccc(Cl)s1` [Cmpd 199, 3-(5-[(5-chlorothiophen-2-yl)methyl]amino-1-[(thiophen-3-yl)carbonyl]-1H-pyrazol-3-yl)-1-(pyridin-3-ylmethyl)-1,2-dihydropyridin-2-one], the pIC50 was less than 4.00. Under `O=C(c1ccsc1)n1nc(-c2cccn(Cc3ccncc3)c2=O)cc1NCc1ccc(Cl)s1` [Cmpd 200, 3-(5-[(5-chlorothiophen-2-yl)methyl]amino-1-[(thiophen-3-yl)carbonyl]-1H-pyrazol-3-yl)-1-(pyridin-4-ylmethyl)-1,2-dihydropyridin-2-one] stands more than 7.00; under `O=C(c1ccsc1)n1nc(-c2cccn(Cc3cccs3)c2=O)cc1NCc1ccc(Cl)s1` [Cmpd 202, 3-(5-[(5-chlorothiophen-2-yl)methyl]amino-1-[(thiophen-3-yl)carbonyl]-1H-pyrazol-3-yl)-1-(thiophen-2-ylmethyl)-1,2-dihydropyridin-2-one], more than 7.00. `O=C(c1ccsc1)n1nc(-c2cccn(CCN3CCOCC3)c2=O)cc1NCc1ccc(Cl)s1` [Cmpd 204, 3-(5-[(5-chlorothiophen-2-yl)methyl]amino-1-[(thiophen-3-yl)carbonyl]-1H-pyrazol-3-yl)-1-[2-(morpholin-4-yl)ethyl]-1,2-dihydropyridin-2-one] gave a pIC50 of more than 7.00. On to `O=C(c1ccccc1N1CCOCC1)n1nc(-c2ccc[nH]c2=O)cc1NCc1ccc(Cl)s1` [Cmpd 205, 3-(5-[(5-chlorothiophen-2-yl)methyl]amino-1-[2-(morpholin-4-yl)phenyl]carbonyl-1H-pyrazol-3-yl)-1,2-dihydropyridin-2-one], for which the pIC50 was 5.00 to 6.00.

In turn, `COCCOc1ccc(C(=O)n2nc(-c3ccc[nH]c3=O)cc2NCc2ccc(Cl)s2)cc1` [Cmpd 206, 3-(5-[(5-chlorothiophen-2-yl)methyl]amino-1-[4-(2-methoxyethoxy)phenyl]carbonyl-1H-pyrazol-3-yl)-1,2-dihydropyridin-2-one] showed a negative-log IC50 (pIC50) of more than 7.00. Molecule `O=C(c1ccc(N2CCOCC2)cc1)n1nc(-c2ccc[nH]c2=O)cc1NCc1ccc(Cl)s1` [Cmpd 207, 3-(5-[(5-chlorothiophen-2-yl)methyl]amino-1-[4-(morpholin-4-yl)phenyl]carbonyl-1H-pyrazol-3-yl)-1,2-dihydropyridin-2-one] had a negative logarithm of the IC50 (pIC50) of more than 7.00. Under `O=C(c1ccc(N2CCOCC2)cc1)n1nc(-c2cccn(Cc3ccco3)c2=O)cc1NCc1ccc(Cl)s1` [Cmpd 209, 3-(5-[(5-chlorothiophen-2-yl)methyl]amino-1-[4-(morpholin-4-yl)phenyl]carbonyl-1H-pyrazol-3-yl)-1-(furan-2-ylmethyl)-1,2-dihydropyridin-2-one] stands more than 7.00. The molecule `O=C(c1ccc(N2CCOCC2)cc1)n1nc(-c2cccn(Cc3cccnn3)c2=O)cc1NCc1ccc(Cl)s1` [Cmpd 211, 3-(5-[(5-chlorothiophen-2-yl)methyl]amino-1-[4-(morpholin-4-yl)phenyl]carbonyl-1H-pyrazol-3-yl)-1-(pyridazin-3-ylmethyl)-1,2-dihydropyridin-2-one] had a pIC50 of more than 7.00. Then `O=C(c1ccc(N2CCOCC2)cc1)n1nc(-c2cccn(Cc3ccccn3)c2=O)cc1NCc1ccc(Cl)s1` [Cmpd 212, 3-(5-[(5-chlorothiophen-2-yl)methyl]amino-1-[4-(morpholin-4-yl)phenyl]carbonyl-1H-pyrazol-3-yl)-1-(pyridin-2-ylmethyl)-1,2-dihydropyridin-2-one], with more than 7.00. With `O=C(c1ccc(N2CCOCC2)cc1)n1nc(-c2cccn(Cc3ncccn3)c2=O)cc1NCc1ccc(Cl)s1` [Cmpd 215, 3-(5-[(5-chlorothiophen-2-yl)methyl]amino-1-[4-(morpholin-4-yl)phenyl]carbonyl-1H-pyrazol-3-yl)-1-(pyrimidin-2-ylmethyl)-1,2-dihydropyridin-2-one], the pIC50 was more than 7.00. Then `O=C(c1ccc(N2CCOCC2)cc1)n1nc(-c2cccn(Cc3cccs3)c2=O)cc1NCc1ccc(Cl)s1` [Cmpd 216, 3-(5-[(5-chlorothiophen-2-yl)methyl]amino-1-[4-(morpholin-4-yl)phenyl]carbonyl-1H-pyrazol-3-yl)-1-(thiophen-2-ylmethyl)-1,2-dihydropyridin-2-one], with more than 7.00; and `O=C(c1ccc(N2CCOCC2)cc1)n1nc(-c2cccn(Cc3ccsc3)c2=O)cc1NCc1ccc(Cl)s1` [Cmpd 217, 3-(5-[(5-chlorothiophen-2-yl)methyl]amino-1-[4-(morpholin-4-yl)phenyl]carbonyl-1H-pyrazol-3-yl)-1-(thiophen-3-ylmethyl)-1,2-dihydropyridin-2-one], with more than 7.00; and `O=c1c(-c2cc(NCc3ccc(Cl)s3)[nH]n2)cccn1Cc1nnn[nH]1` [Cmpd 219, 3-(5-[(5-chlorothiophen-2-yl)methyl]amino-1H-pyrazol-3-yl)-1-(1H-1,2,3,4-tetrazol-5-ylmethyl)-1,2-dihydropyridin-2-one], with 4.00 to 5.00. Consider `COCCn1cccc(-c2cc(NCc3ccc(Cl)s3)n[nH]2)c1=O` [Cmpd 220, 3-(5-[(5-chlorothiophen-2-yl)methyl]amino-1H-pyrazol-3-yl)-1-(2-methoxyethyl)-1,2-dihydropyridin-2-one], for which the pIC50 was 4.00 to 5.00. For `O=c1c(-c2cc(NCc3ccc(Cl)s3)[nH]n2)cccn1CCc1ccccc1` [Cmpd 221, 3-(5-[(5-chlorothiophen-2-yl)methyl]amino-1H-pyrazol-3-yl)-1-(2-phenylethyl)-1,2-dihydropyridin-2-one], the pIC50 was 4.00 to 5.00.

(Values after patent US9687479B2, “Multisubstituted aromatic compounds as serine protease inhibitors” (VERSEON CORPORATION, priority 2013, dated 2017).)
